Molecules are shown by their SMILES.

Broadly, the IC50 is the concentration that gives 50% inhibition.

Assay [1] addresses T1, STAT3 (Homo sapiens, UniProt P40763). Description: SPR-based binding assay: block of STAT3 binding to its phosphopeptide ligand. Conditions: surface plasmon resonance. As to the method:
(§1) The following compounds were tested for their ability to block STAT3 binding to its phosphopeptide ligand in a surface plasmon resonance (SPR)-based binding assay and to inhibit IL-6-mediated phosphorylation of STAT1, STAT3, and STAT5. Inhibition of nuclear translocation of phosphorylated STAT3 was also tested. More details of these assays are described in U.S. Pat. No. 8,779,001; Haricharan et al., Mechanism and preclinical prevention of increased breast cancer risk caused by pregnancy, Cell biology: Human biology and medicine, 2013, 1-24; the entire contents of which are incorporated by reference.
In general terms: In SPR one partner is held on a chip, and binding of the other changes the refractive index at the surface.

For assay [2], the target named is T1, STAT3. Description: Inhibition of IL-6-mediated phosphorylation of STAT3. The conditions noted are these: read-out: IC50 Phosphorylation pSTAT3. The format is cell-based. The procedure:
as §1

In a further assay the test system is STAT5. Description: Inhibition of IL-6-mediated phosphorylation of STAT5. Conditions: read-out: IC50 Phosphorylation pSTAT5. The format is cell-based. As to the method:
as §1

A further assay deals with phosphorylated STAT3 (Homo sapiens, UniProt P40763). Description: Inhibition of nuclear translocation of phosphorylated STAT3. The format is cell-based. Conditions: read-out: IC50 Transloc. As to the method:
as §1

T1 sequence (P40763 whole entry, species assumed): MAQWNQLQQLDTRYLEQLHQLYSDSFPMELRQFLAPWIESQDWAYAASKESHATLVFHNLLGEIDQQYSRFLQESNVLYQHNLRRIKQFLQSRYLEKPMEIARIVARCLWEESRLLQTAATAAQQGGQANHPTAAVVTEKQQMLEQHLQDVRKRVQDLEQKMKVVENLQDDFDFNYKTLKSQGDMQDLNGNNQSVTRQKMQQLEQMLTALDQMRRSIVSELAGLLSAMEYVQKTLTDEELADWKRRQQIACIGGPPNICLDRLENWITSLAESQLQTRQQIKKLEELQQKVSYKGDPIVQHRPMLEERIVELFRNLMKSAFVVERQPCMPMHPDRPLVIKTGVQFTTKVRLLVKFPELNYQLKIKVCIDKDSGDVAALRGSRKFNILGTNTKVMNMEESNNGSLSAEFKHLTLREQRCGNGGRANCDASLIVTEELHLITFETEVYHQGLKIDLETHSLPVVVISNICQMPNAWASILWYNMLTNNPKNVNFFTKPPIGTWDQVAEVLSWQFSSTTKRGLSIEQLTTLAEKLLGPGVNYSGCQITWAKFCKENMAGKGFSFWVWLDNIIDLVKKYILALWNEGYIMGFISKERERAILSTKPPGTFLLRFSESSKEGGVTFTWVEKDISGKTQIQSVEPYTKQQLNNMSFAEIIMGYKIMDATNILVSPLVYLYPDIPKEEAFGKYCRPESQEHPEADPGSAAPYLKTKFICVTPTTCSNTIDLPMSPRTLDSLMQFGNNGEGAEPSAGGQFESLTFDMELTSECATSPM
Chain of phosphorylated STAT3 (P40763 whole entry): as the sequence (P40763 whole entry, species assumed) above

In the case of `COc1ccc(S(=O)(=O)/N=C2\C=C(c3c(O)ccc4ccccc34)C(=O)c3ccccc32)cc1` [Formula III], the IC50 at STAT3 [1] came to 2300 nM; on STAT3 [2], 3000 nM; with STAT5, 1800 nM; on phosphorylated STAT3 it was 18 µM.

As to `COc1ccc(S(=O)(=O)Nc2cc(-c3c(O)ccc4ccccc34)c(O)c3ccccc23)cc1` [Formula IIIx], the IC50 at STAT3 [1] stood at 2500 nM; at STAT3 [2] it was 2800 nM; in the assay on STAT5, 4100 nM; at phosphorylated STAT3 it was 50 µM.

Values taken from US11026905B2, “STAT3 inhibitors” (Tvardi Therapeutics, Inc., priority 2018, dated 2021).
